Measurements as given in paper PMC5619143 (Future Microbiology, 2017).

Test system: LdtMav2
Test: nitrocefin hydrolysis, absorbance at […] nm, Michaelis-Menten fit
Type: biochemical, Mycobacterium avium
Settings: pH 6.5, 25 °C

O=C(Cc1cccs1)N[C@@H]1C(=O)N2C(C(=O)O)=C(/C=C/c3ccc([N+](=O)[O-])cc3[N+](=O)[O-])CS[C@H]12 [nitrocefin]
Km: 75 µM
